Laboratory results: a compilation of properties of binary mixtures (doi:10.1016/j.molliq.2005.06.001)

Assay: xn = mol fraction of the nth substance listed
Details: 298 K, 101 kPa

CCCn1cc[n+](C)c1.[Br-] + CC1COC(=O)O1
Details	electrical conductivity [S/m]
x1 = 0.004	0.09
x2 = 0	0.03
x2 = 0.19	0.07
x2 = 0.27	0.09
x2 = 0.38	0.15
x2 = 0.46	0.26
x2 = 0.49	0.26
x2 = 0.55	0.42
x2 = 0.61	0.47
x2 = 0.76	0.59
x2 = 0.82	0.69
x2 = 0.89	0.73
x2 = 0.93	0.63
x2 = 0.96	0.49

CC[n+]1ccn(C)c1.F[B-](F)(F)F + CC1COC(=O)O1
Details	electrical conductivity [S/m]
x1 = 0.001	0.05
x2 = 0	1.39
x2 = 0.37	1.73
x2 = 0.55	1.85
x2 = 0.65	1.87
x2 = 0.75	1.8
x2 = 0.95	0.99

CNC=O + CC[n+]1ccn(C)c1.F[B-](F)(F)F
Details	electrical conductivity [S/m]
x1 = 0.05	1.59
x1 = 0.11	1.79
x1 = 0.31	2.26
x1 = 0.57	2.97
x1 = 0.72	3.15
x1 = 0.78	3.26
x1 = 0.86	3.05
x1 = 0.91	2.62
x2 = 0.001	0.34

Cn1ccnc1 + CC[n+]1ccn(C)c1.F[B-](F)(F)F
Details	electrical conductivity [S/m]
x1 = 0.1	1.67
x1 = 0.19	1.72
x1 = 0.31	1.83
x1 = 0.41	1.91
x1 = 0.51	2.01
x1 = 0.61	2.11
x1 = 0.7	2.15
x1 = 0.8	2.12
x1 = 0.85	1.85
x1 = 0.9	1.7
x1 = 0.95	1.18
x2 = 0.003	0.14

CCCn1cc[n+](C)c1.[Br-] + O
Details	electrical conductivity [S/m]
x1 = 0.0002	0.16
x2 = 0	0.03
x2 = 0.22	0.155
x2 = 0.36	0.46
x2 = 0.51	1.22
x2 = 0.79	6.23
x2 = 0.96	8.92

CC[n+]1ccn(C)c1.F[B-](F)(F)F + O
Details	electrical conductivity [S/m]
x1 = 0.0001	0.08
x1 = 0.01	4.13
x2 = 0	1.39
x2 = 0.16	2.04
x2 = 0.34	2.92
x2 = 0.47	4.11
x2 = 0.66	6.17
x2 = 0.9	9.28
x2 = 0.92	8.78
x2 = 0.95	8.32
x2 = 0.97	6.32
